Marks after values point to notes of the source that are not given here.
Columns and labels:
[1] = Solubility screening procedure (concentration and pH of filtrate); format: physicochemical; details: for Conc. of CPD A: compound A + equimolar acid; for Conc. of CPD A / Conc. of CPD B: amino acid or base in deionized water, room temperature, filtrate, UV assay; for pH of Solution: pH of the filtrate; for Conc. of CPD B: compound B + equimolar acid
Description: (§1) The amount of Compound A or Compound B calculated for selected concentrations was weighed into volumetric flasks. Equimolar quantities of combining acid, amino acid, or base were added either as solutions or in dry form. Deionized water was added to bring the volume to that desired for the preselected concentrations.. All flasks were sonicated for 15 minutes, allowed to stand at room temperature for 30 minutes, then filtered through a fine frit sintered glass funnel. After the pH of the filtrate was taken, suitable dilutions were made into 0.1N HCl for ultraviolet spectrophotometric assay of concentration. Ten fold dilutions of the original filtrates were made into standard I.V. solutions.

[2] = 10x dilution of soluble forms with standard IV solutions (pH, precipitate); format: physicochemical; details: for Solution 1 ppt 4 hr / Solution 3 ppt 4 hr / Solution 2 ppt 4 hr / Solution 4 ppt 4 hr: precipitate at 4 hr; for Solution 1 ppt 24 hr / Solution 3 ppt 24 hr / Solution 2 ppt 24 hr / Solution 4 ppt 24 hr: precipitate at 24 hr; for Concen. of Cpd A: undiluted solution used for the 10x dilutions
Description: as §1

[3] = concentrated Cpd B solution (154-221 mg/ml) diluted 10x with 5% Dextrose
[4] = concentrated Cpd B solution (154-221 mg/ml) diluted 10x with 5% Dextrose + 0.9% NaCl
[5] = concentrated Cpd B solution (154-221 mg/ml) diluted 10x with Lactated Ringer's Solution
[6] = concentrated Cpd B solution (155-221 mg/ml) diluted 10x with 0.9% NaCl
[7] = concentrated Cpd B solution diluted 10x with 5% Dextrose + 0.9% NaCl
[8] = concentrated Cpd B solution diluted 10x with 5% Dextrose
[9] = concentrated Cpd B solution diluted 10x with Lactated Ringer's Solution
[10] = undiluted concentrated Cpd B solution used for the Solution 1 dilution
[11] = undiluted concentrated solution (at least 155 mg/ml) used for the Solution 1 dilution (for most salts for all four solutions)
[12] = low-concentration Cpd B solution (26.2-52 mg/ml) diluted 10x with 0.9% NaCl
[13] = Cpd A salt solution diluted 10x with 0.9% NaCl
[14] = Cpd A salt solution diluted 10x with 5% Dextrose
[15] = Cpd A salt solution diluted 10x with 5% Dextrose + 0.9% NaCl
[16] = Cpd A salt solution diluted 10x with Lactated Ringer's Solution

CCn1cc(C(=O)O)c(=O)c2cc(F)c(N3CCNCC3)cc21 [A L-Proline]
Conc. of CPD A [1]: 0.9 mg/mL | pH of Solution ([1]; CPD A solutions): 6.28

CCn1cc(C(=O)O)c(=O)c2cc(F)c(N3CCNCC3)cc21 [A Citric]
Conc. of CPD A [1]: 1.5 mg/mL | pH of Solution ([1]; CPD A solutions): 3.32

CCn1cc(C(=O)O)c(=O)c2cc(F)c(N3CCNCC3)nc21 [B Acetic]
Conc. of CPD B [1]: 195 mg/mL | pH of Solution ([1]; CPD B solutions): 4.97^c | Solution 2 pH dil [2, 3]: 5.6 | Solution 3 pH dil [2, 4]: 5.4 | Solution 4 pH dil [2, 5]: 5.3 | Solution 1 pH dil [2, 6]: 5.2 | Solution 1 ppt 4 hr [2, 6]: yes | Solution 1 ppt 24 hr [2, 6]: yes | Solution 3 ppt 4 hr [2, 7]: yes | Solution 3 ppt 24 hr [2, 7]: yes | Solution 2 ppt 4 hr [2, 8]: slight | Solution 2 ppt 24 hr [2, 8]: slight | Solution 4 ppt 4 hr [2, 9]: slight | Solution 4 ppt 24 hr [2, 9]: yes | pH of Solut. [2, 10]: 4.97 | Concen. of Cpd B [2, 11]: 195 mg/mL

CCn1cc(C(=O)O)c(=O)c2cc(F)c(N3CCNCC3)cc21 [A Oxalic]
Conc. of CPD A [1]: 19.8 mg/mL | pH of Solution ([1]; CPD A solutions): 2.14

CCn1cc(C(=O)O)c(=O)c2cc(F)c(N3CCNCC3)nc21 [B Diethanolamine]
Conc. of CPD B [1]: 4.3 mg/mL | pH of Solution ([1]; CPD B solutions): 9.7

CCn1cc(C(=O)O)c(=O)c2cc(F)c(N3CCNCC3)cc21 [A Succinic]
Conc. of CPD A [1]: 128 mg/mL | pH of Solution ([1]; CPD A solutions): 4.25

CCn1cc(C(=O)O)c(=O)c2cc(F)c(N3CCNCC3)nc21 [B L-Lysine]
Conc. of CPD B [1]: 4.3 mg/mL | pH of Solution ([1]; CPD B solutions): 9.4

CCn1cc(C(=O)O)c(=O)c2cc(F)c(N3CCNCC3)cc21 [A Galacturonic]
Conc. of CPD A [1]: 166 mg/mL | pH of Solution ([1]; CPD A solutions): 5.44

CCn1cc(C(=O)O)c(=O)c2cc(F)c(N3CCNCC3)nc21 [B L-Cysteic]
Conc. of CPD B [1]: 221 mg/mL | pH of Solution ([1]; CPD B solutions): 2.78 | Solution 2 pH dil [2, 3]: 2.9 | Solution 3 pH dil [2, 4]: 2.8 | Solution 4 pH dil [2, 5]: 3.9 | Solution 1 pH dil [2, 6]: 2.8 | Solution 1 ppt 4 hr [2, 6]: yes | Solution 1 ppt 24 hr [2, 6]: yes | Solution 3 ppt 4 hr [2, 7]: yes | Solution 3 ppt 24 hr [2, 7]: yes | Solution 2 ppt 4 hr [2, 8]: hazy | Solution 2 ppt 24 hr [2, 8]: hazy | Solution 4 ppt 4 hr [2, 9]: yes | Solution 4 ppt 24 hr [2, 9]: yes | Solution 1 pH dil [2, 12]: 3.29 | Solution 1 ppt 24 hr [2, 12]: no | pH of Solut. [2, 10]: 2.78 | Concen. of Cpd B [2, 11]: 221 mg/mL | pH of Solut. ([2]; undiluted low-concentration Cpd B solution (26.2-52 mg/ml)): 2.96 | Concen. of Cpd B ([2]; undiluted low-concentration solution (26.2-52 mg/ml), diluted with Solution 1 only): 52 mg/mL

CCn1cc(C(=O)O)c(=O)c2cc(F)c(N3CCNCC3)nc21 [B Lactobionic]
Conc. of CPD B [1]: 99 mg/mL | pH of Solution ([1]; CPD B solutions): 3.6 ^b

CCn1cc(C(=O)O)c(=O)c2cc(F)c(N3CCNCC3)nc21 [B L-Proline]
Conc. of CPD B [1]: 1.1 mg/mL | pH of Solution ([1]; CPD B solutions): 6.92

CCn1cc(C(=O)O)c(=O)c2cc(F)c(N3CCNCC3)cc21 [A Diethanolamine]
Conc. of CPD A [1]: 7.5 mg/mL | pH of Solution ([1]; CPD A solutions): 9.68

CCn1cc(C(=O)O)c(=O)c2cc(F)c(N3CCNCC3)nc21 [B Choline]
Conc. of CPD B [1]: 38.2 mg/mL | pH of Solution ([1]; CPD B solutions): 9.8

CCn1cc(C(=O)O)c(=O)c2cc(F)c(N3CCNCC3)cc21 [A Lactobionic]
Conc. of CPD A [1]: 46.5 mg/mL | pH of Solution ([1]; CPD A solutions): 4.65

CCn1cc(C(=O)O)c(=O)c2cc(F)c(N3CCNCC3)cc21 [A Maleic]
Conc. of CPD A [1]: 45.1 mg/mL | pH of Solution ([1]; CPD A solutions): 2.79

CCn1cc(C(=O)O)c(=O)c2cc(F)c(N3CCNCC3)cc21 [A Choline]
Conc. of CPD A [1]: 53.5 mg/mL | pH of Solution ([1]; CPD A solutions): 10.34

CCn1cc(C(=O)O)c(=O)c2cc(F)c(N3CCNCC3)cc21 [A D,L-Alanine]
Conc. of CPD A [1]: 0.9 mg/mL | pH of Solution ([1]; CPD A solutions): 6.44

CCn1cc(C(=O)O)c(=O)c2cc(F)c(N3CCNCC3)cc21 [A L-Lysine]
Conc. of CPD A [1]: 4.2 mg/mL | pH of Solution ([1]; CPD A solutions): 9.5

CCn1cc(C(=O)O)c(=O)c2cc(F)c(N3CCNCC3)nc21 [B Glycine]
Conc. of CPD B [1]: 1.2 mg/mL | pH of Solution ([1]; CPD B solutions): 6.87

CCn1cc(C(=O)O)c(=O)c2cc(F)c(N3CCNCC3)cc21 [A Sodium Hydroxide]
Conc. of CPD A [1]: 131 mg/mL | pH of Solution ([1]; CPD A solutions): 10.0

CCn1cc(C(=O)O)c(=O)c2cc(F)c(N3CCNCC3)nc21 [B Lactic]
Conc. of CPD B [1]: 217 mg/mL | pH of Solution ([1]; CPD B solutions): 4.24^b | Solution 2 pH dil [2, 3]: 4.2 | Solution 3 pH dil [2, 4]: 4.1 | Solution 4 pH dil [2, 5]: 4.3 | Solution 1 pH dil [2, 6]: 4.1 | Solution 1 ppt 4 hr [2, 6]: yes | Solution 1 ppt 24 hr [2, 6]: yes | Solution 3 ppt 4 hr [2, 7]: yes | Solution 3 ppt 24 hr [2, 7]: yes | Solution 2 ppt 4 hr [2, 8]: hazy | Solution 2 ppt 24 hr [2, 8]: hazy | Solution 4 ppt 4 hr [2, 9]: yes | Solution 4 ppt 24 hr [2, 9]: yes | pH of Solut. [2, 10]: 4.04 | Concen. of Cpd B [2, 11]: 221 mg/mL

CCn1cc(C(=O)O)c(=O)c2cc(F)c(N3CCNCC3)cc21 [A L-Histidine]
Conc. of CPD A [1]: 0.7 mg/mL | pH of Solution ([1]; CPD A solutions): 7.4

CCn1cc(C(=O)O)c(=O)c2cc(F)c(N3CCNCC3)nc21 [B L-Histidine]
Conc. of CPD B [1]: 1.1 mg/mL | pH of Solution ([1]; CPD B solutions): 7.53

CCn1cc(C(=O)O)c(=O)c2cc(F)c(N3CCNCC3)nc21 [B Succinic]
Conc. of CPD B [1]: 75 mg/mL | pH of Solution ([1]; CPD B solutions): 4.45^b

CCn1cc(C(=O)O)c(=O)c2cc(F)c(N3CCNCC3)nc21 [B Gluconic]
Conc. of CPD B [1]: 168 mg/mL | pH of Solution ([1]; CPD B solutions): 4.6

CCn1cc(C(=O)O)c(=O)c2cc(F)c(N3CCNCC3)cc21 [A Isethionic]
Conc. of CPD A [1]: 175 mg/mL | pH of Solution ([1]; CPD A solutions): 1.35 | Solution 1 pH dil [2, 13]: 2.18 | Solution 1 ppt 24 hr [2, 13]: no | Solution 2 pH dil [2, 14]: 2.27 | Solution 3 pH dil [2, 15]: 2.08 | Solution 3 ppt 24 hr [2, 15]: no | Solution 2 ppt 24 hr [2, 14]: no | Solution 4 pH dil [2, 16]: 3.70 | Solution 4 ppt 24 hr [2, 16]: no | pH of Solut. ([2]; undiluted Cpd A solution): 1.35 | Concen. of Cpd A [2]: 175 mg/mL

CCn1cc(C(=O)O)c(=O)c2cc(F)c(N3CCNCC3)nc21 [B Tartaric]
Conc. of CPD B [1]: 7.7 mg/mL | pH of Solution ([1]; CPD B solutions): 3.46

CCn1cc(C(=O)O)c(=O)c2cc(F)c(N3CCNCC3)nc21 [B L-Arginine]
Conc. of CPD B [1]: 6.7 mg/mL | pH of Solution ([1]; CPD B solutions): 9.7

CCn1cc(C(=O)O)c(=O)c2cc(F)c(N3CCNCC3)nc21 [B Maleic]
Conc. of CPD B [1]: 7.75 mg/mL | pH of Solution ([1]; CPD B solutions): 2.60

CCn1cc(C(=O)O)c(=O)c2cc(F)c(N3CCNCC3)cc21 [A Tartaric]
Conc. of CPD A [1]: 3.5 mg/mL | pH of Solution ([1]; CPD A solutions): 3.02

CCn1cc(C(=O)O)c(=O)c2cc(F)c(N3CCNCC3)cc21 [A Gluconic]
Conc. of CPD A [1]: 182 mg/mL | pH of Solution ([1]; CPD A solutions): 4.3

CCn1cc(C(=O)O)c(=O)c2cc(F)c(N3CCNCC3)nc21 [B Oxalic]
Conc. of CPD B [1]: 2.8 mg/mL | pH of Solution ([1]; CPD B solutions): 1.76^b

CCn1cc(C(=O)O)c(=O)c2cc(F)c(N3CCNCC3)cc21 [A L-Arginine]
Conc. of CPD A [1]: 11.1 mg/mL | pH of Solution ([1]; CPD A solutions): 9.8

CCn1cc(C(=O)O)c(=O)c2cc(F)c(N3CCNCC3)cc21 [A L-Leucine]
Conc. of CPD A [1]: 0.9 mg/mL | pH of Solution ([1]; CPD A solutions): 6.2

CCn1cc(C(=O)O)c(=O)c2cc(F)c(N3CCNCC3)cc21 [A L-Cysteic]
Conc. of CPD A [1]: 166 mg/mL | pH of Solution ([1]; CPD A solutions): 2.92 | Solution 1 pH dil [2, 13]: 3.17 | Solution 1 ppt 24 hr [2, 13]: no | Solution 2 pH dil [2, 14]: 2.82 | Solution 3 pH dil [2, 15]: 2.68 | Solution 3 ppt 24 hr [2, 15]: no | Solution 2 ppt 24 hr [2, 14]: no | Solution 4 pH dil [2, 16]: 3.70 | Solution 4 ppt 24 hr [2, 16]: slight | pH of Solut. ([2]; undiluted Cpd A solution): 2.92 | Concen. of Cpd A [2]: 166 mg/mL

CCn1cc(C(=O)O)c(=O)c2cc(F)c(N3CCNCC3)nc21 [B Citric]
Conc. of CPD B [1]: 1.3 mg/mL | pH of Solution ([1]; CPD B solutions): 3.14
